The target in the assay is T1, human EP3 receptor (Homo sapiens, UniProt P43115).
T1 construct: expressed in transfected cells; host or cells: CHO K1 (Chinese Hamster Ovary), stably co-transfected with Galpha16 and mitochondrial clytin
T1 sequence (P43115 1-390): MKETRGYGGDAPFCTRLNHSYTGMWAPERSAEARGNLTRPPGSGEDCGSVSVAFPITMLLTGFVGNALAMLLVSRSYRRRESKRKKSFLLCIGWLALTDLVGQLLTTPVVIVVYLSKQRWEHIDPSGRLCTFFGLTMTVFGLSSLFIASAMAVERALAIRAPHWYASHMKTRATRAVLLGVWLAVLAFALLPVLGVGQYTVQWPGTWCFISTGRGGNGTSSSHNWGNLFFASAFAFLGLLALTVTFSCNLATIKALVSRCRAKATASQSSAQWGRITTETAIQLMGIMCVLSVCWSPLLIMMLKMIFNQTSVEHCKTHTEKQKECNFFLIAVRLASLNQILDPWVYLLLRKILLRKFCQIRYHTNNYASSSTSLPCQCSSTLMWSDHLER
Nature of the assay: Cellular in vitro assay for determining EP3 receptor activity (human EP3 cell line, sulprostone-stimulated calcium luminescence). The format is cell-based. The conditions noted are these: CHO cells expressing human EP3 and mitochondrial Clytin; antagonist mode, sulprostone at EC50; read-out: EP3 CHO mtCLY ANTAG IC50. In short, it runs like this:
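CHO K1 cells stably expressing human EP3 with Gα16 and mitochondrial Clytin, loaded overnight with coelenterazine. Compounds added 10 min before sulprostone at its EC50; antagonism read immediately as reduced calcium-driven luminescence, quadruplicate points.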
Broadly, the IC50 is the point on the concentration scale where inhibition reaches its midpoint. On to `CC[C@@H](NC(=O)c1nn2c(C)c(-c3ccc4ccccc4c3)[nH]c(=O)c2c1C)c1ccccc1` [Example 3-33, 3,7-Dimethyl-6-(naphthalen-2-yl)-4-oxo-N-[(7R)-1-phenylpropyl]-4,5-dihydropyrazolo[1,5-a]pyrazine-2-carboxamide], for which the IC50 turned out to be 2.2 nM.
To `Cc1c(C(=O)NC2(c3ccc(F)cc3)CC2)nn2cc(-c3ccc4ccccc4c3)[nH]c(=O)c12` [6-71] belongs 2.85 nM; to `CC(NC(=O)c1cc2c(=O)[nH]c(-c3ccc4c(c3)OCCO4)cn2n1)c1ccc(F)cc1` (stereo not shown) [Example 5-2, 6-(2,3-Dihydro-1,4-benzodioxin-6-yl)-N-[1-(4-fluorophenyl)ethyl]-4-oxo-5H-pyrazolo[1,5-a]pyrazine-2-carboxamide], 1.65 nM.
To `Cc1cc(-c2cn3nc(C(=O)NC(c4ccc(F)cc4)C4(O)CC4)c(C(F)(F)F)c3c(=O)[nH]2)ccc1Cl` (racemic) [6-210] belongs 1.45 nM.
To `Cc1ccc(-c2cn3nc(C(=O)N[C@H](C)C(C)C)c(C4CC4)c3c(=O)[nH]2)cc1C` [Example 1-143, 3-Cyclopropyl-6-(3,4-dimethylphenyl)-N-[(2R)-3-methylbutan-2-yl]-4-oxo-4,5-dihydropyrazolo-[1,5-a]pyrazine-2-carboxamide] belongs 1.5 nM; to `Cc1ccc(-c2cn3nc(C(=O)N[C@H](C)c4ccc(F)cc4)cc3c(=O)[nH]2)cc1C` [6-36], 1.2 nM; to `CC[C@@H](NC(=O)c1nn2cc(-c3ccc4ccccc4c3)[nH]c(=O)c2c1C#N)c1ccccc1` [Example 3-61, 3-Cyano-6-(naphthalen-2-yl)-4-oxo-N-[(1R)-1-phenylpropyl]-4,5-dihydropyrazolo[1,5-a]pyrazine-2-carboxamide], 2 nM.
Regarding `CC(C)(O)[C@@H](NC(=O)c1cc2c(=O)[nH]c(-c3ccc4ccccc4c3)cn2n1)c1ccc(F)cc1` [Example 1-29, N-[(1S)-1-(4-Fluorophenyl)-2-hydroxy-2-methylpropyl]-6-(naphthalen-2-yl)-4-oxo-4,5-dihydropyrazolo[1,5-a]pyrazine-2-carboxamide], the IC50 came out at 1.55 nM.
The same measure for `Cc1ccc(-c2cn3nc(C(=O)NC(C(C)(C)O)C(F)(F)F)c(C4CC4)c3c(=O)[nH]2)cc1F` (racemic) [6-394]: 6.65 nM; for `O=C(NC(c1ccc(F)cc1)C1(O)CC1)c1nn2cc(-c3ccc(Cl)c(Cl)c3)[nH]c(=O)c2c1C1CC1` (racemic) [6-422]: 0.7 nM.
To `O=C(NCc1cc(F)cc(F)c1)c1cc2c(=O)[nH]c(-c3ccc4ccccc4c3)cn2n1` [Example 2-31, N-(3,5-Difluorbenzyl)-6-(2-naphthyl)-4-oxo-4,5-dihydropyrazolo[1,5-a]pyrazine-2-carboxamide] belongs 2.55 nM.
The same measure for `Cc1ccc(-c2cn3nc(C(=O)N[C@@H](c4ccccc4)C(C)(C)O)c(C(F)(F)F)c3c(=O)[nH]2)cc1F` [6-143]: 4.35 nM; for `Cc1cc(-c2cn3nc(C(=O)NC(c4ccc(F)cc4)C4(O)CC4)c(C4CC4)c3c(=O)[nH]2)ccc1F` (racemic) [6-650]: 1.55 nM; for `Cc1cc(-c2cn3nc(C(=O)NC(C)C4CCC4)c(C4CC4)c3c(=O)[nH]2)ccc1Cl` (single isomer, unassigned) [6-299]: 4.4 nM.
In the case of `CC(NC(=O)c1cc2c(=O)[nH]c(-c3ccc4ccccc4c3)cn2n1)c1ccc(Cl)c(Cl)c1` (stereo not shown) [Example 2-36, N-[1-(3,4-Dichlorphenyl)ethyl]-6-(2-naphthyl)-4-oxo-4,5-dihydropyrazolo[1,5-a]pyrazine-2-carboxamide], the IC50 came out at 2.8 nM.
To `Cc1ccc(-c2cn3nc(C(=O)N[C@H](C)c4ccc(F)cc4)c(C(C)C)c3c(=O)[nH]2)cc1C` [Example 1-90, 6-(3,4-Dimethylphenyl)-N-[(1R)-1-(4-fluorophenyl)ethyl]-4-oxo-3-(propan-2-yl)-4,5-dihydropyrazolo[1,5-a]pyrazine-2-carboxamide] belongs 0.515 nM.
To `Cc1cc(-c2cn3nc(C(=O)NCCC(O)C(F)(F)F)c(C4CC4)c3c(=O)[nH]2)ccc1Cl` (single isomer, unassigned) [6-310] belongs 0.91 nM; to `COC(=O)C(NC(=O)c1cc2c(=O)[nH]c(-c3ccc4ccccc4c3)cn2n1)c1ccc(F)cc1` (stereo not shown) [6-17], 3.75 nM; to `Cc1ccc(-c2cn3nc(C(=O)NCCC(O)C(F)(F)F)c(C4CC4)c3c(=O)[nH]2)cc1F` (racemic) [6-366], 2.2 nM.
For `O=C(NC1CCN(CC(F)F)C1)c1nn2cc(-c3ccc4ccccc4c3)[nH]c(=O)c2c1C(F)(F)F` (stereo not shown) [6-518], the IC50 was 1.7 nM.
To `CC(C)(O)[C@@H](NC(=O)c1nn2cc(-c3ccc(Cl)c(F)c3)[nH]c(=O)c2c1C1CC1(F)F)c1ccc(F)cc1` (stereo partly shown) [6-564] belongs 4.05 nM; to `Cc1cccc2ncc(-c3cn4nc(C(=O)NC(CN(C)C)c5ccccc5)c(C(C)C)c4c(=O)[nH]3)cc12` (stereo not shown) [Example 4-1, N-[2-(Dimethylamino)-1-phenylethyl]-3-isopropyl-6-(5-methyl-3-quinolyl)-4-oxo-5H-pyrazolo[1,5-a]pyrazine-2-carboxamide], 1.75 nM; to `Cc1c(C(=O)NC2(c3ccc(Cl)cc3)CCC2)nn2c(C)c(-c3ccc4ccccc4c3)[nH]c(=O)c12` [Example 3-32, N-[1-(4-Chlorophenyl)cyclobutyl]-3,7-dimethyl-6-(naphthalen-2-yl)-4-oxo-4,5-dihydropyrazolo[1,5-a]pyrazine-2-carboxamide], 5.8 nM.
As to `Cc1cc(-c2cn3nc(C(=O)N[C@@H](c4ccc(F)cc4)C(F)(F)CO)c(C(F)(F)C(F)(F)F)c3c(=O)[nH]2)ccc1Cl` [6-477], the 50% inhibitory concentration (IC50) worked out at 0.44 nM.
Regarding `COc1ccc(C2(NC(=O)c3nn4cc(-c5ccc(Cl)c(C)c5)[nH]c(=O)c4c3C3CC3)CN(C)C2)cc1` [6-303], the IC50 came out at 2.9 nM.
With `O=C(N[C@H](CN1CCOCC1)c1ccc(F)cc1)c1cc2c(=O)[nH]c(-c3ccc4ccccc4c3)cn2n1` [6-67], the IC50 was 1.58 nM.
With `Cc1nn(C(C)CNC(=O)c2cc3c(=O)[nH]c(-c4ccc5ccccc5c4)cn3n2)cc1Cl` (stereo not shown) [Example 2-18, N-[2-(4-Chlor-3-methyl-1H-pyrazol-1-yl)propyl]-6-(2-naphthyl)-4-oxo-4,5-dihydropyrazolo[1,5-a]pyrazine-2-carboxamide], the IC50 is 2.2 nM.
The same measure for `C[C@H](NC(=O)c1cc2c(=O)[nH]c(-c3ccc4ccccc4c3)cn2n1)c1cccc2ccccc12` [Example 2-6]: 8.75 nM.
To `Cc1cccc2ncc(-c3cn4nc(C(=O)NCc5ccc6[nH]c(=O)[nH]c6c5)c(C(C)C)c4c(=O)[nH]3)cc12` [Example 4-80, 6-(5-Methylquinolin-3-yl)-4-oxo-N-[(2-oxo-2,3-dihydro-1H-benzimidazol-5-yl)methyl]-3-(propan-2-yl)-4,5-dihydropyrazolo[1,5-a]pyrazine-2-carboxamide] belongs 1.35 nM; to `COc1cc(-c2cn3nc(C(=O)NC4(c5ccc(F)cc5)CN(C)C4)c(C4CC4)c3c(=O)[nH]2)ccc1Cl` [6-485], 3.4 nM.
Consider `Cc1ccc(-c2cn3nc(C(=O)NC(C)C4CCC4)c(C(F)(F)F)c3c(=O)[nH]2)cc1Cl` (single isomer, unassigned) [6-194], for which the IC50 was found to be 2.55 nM.
Take `Cc1c(C(=O)NC(C)c2ccc(F)cc2)nn2c(C)c(-c3ccc4ccccc4c3)[nH]c(=O)c12` (stereo not shown) [Example 3-21, N-[1-(4-Fluorophenyl)ethyl]-3,7-dimethyl-6-(2-naphthyl)-4-oxo-5H-pyrazolo[1,5-a]pyrazine-2-carboxamide]: the IC50 was 1.8 nM.
The same measure for `Cc1ccc(-c2cn3nc(C(=O)N[C@H](CCO)c4ccc(F)cc4)c(C(F)(F)F)c3c(=O)[nH]2)cc1Cl` [6-196]: 0.29 nM; for `CCN1CC(NC(=O)c2nn3cc(-c4ccc5ccccc5c4)[nH]c(=O)c3c2C(F)(F)F)(c2ccc(F)cc2)C1` [Example 1-126, N-[1-Ethyl-3-(4-fluorophenyl)azetidin-3-yl]-6-(naphthalen-2-yl)-4-oxo-3-(trifluoromethyl)-4,5-dihydropyrazolo[1,5-a]pyrazine-2-carboxamide]: 5.1 nM.
To `O=C(N[C@H]1CCc2ccccc21)c1cc2c(=O)[nH]c(-c3ccc4ccccc4c3)cn2n1` [Example 2-42, N-[(7S)-2,3-Dihydro-1H-inden-1-yl]-6-(2-naphthyl)-4-oxo-4,5-dihydropyrazolo[1,5-a]pyrazine-2-carboxamide] belongs 7.27 nM.
The same measure for `Cc1cc(-c2cn3nc(C(=O)NC4CC(F)(F)C4)c(C(F)(F)F)c3c(=O)[nH]2)ccc1Cl` [6-225]: 7.4 nM; for `Cc1ccc(-c2cn3nc(C(=O)N[C@@H](c4ccc(F)cc4)C(C)(C)O)c(C)c3c(=O)[nH]2)cc1F` [Example 1-162, 6-(3-Fluoro-4-methylphenyl)-N-[(1S)-1-(4-fluorophenyl)-2-hydroxy-2-methylpropyl]-3-methyl-4-oxo-4,5-dihydropyrazolo[1,5-a]pyrazine-2-carboxamide]: 0.89 nM; for `Cc1ccc(-c2cn3nc(C(=O)N[C@H](C)C(C)C)c(C(F)(F)F)c3c(=O)[nH]2)cc1C` [6-114]: 3.15 nM.
With `Cc1ccc(-c2cn3nc(C(=O)NCC(O)C(F)(F)F)c(C4CC4)c3c(=O)[nH]2)cc1C(F)(F)F` (single isomer, unassigned) [6-245], the IC50 came out at 1.35 nM.
To `CC[C@H](C)NC(=O)c1nn2cc(-c3ccc(C)c(Cl)c3)[nH]c(=O)c2c1C(F)(F)F` [6-190] belongs 2.25 nM.
